Measurements from paper PMC2959035, “Comparative biochemical analysis of recombinant reverse transcriptase enzymes of HIV-1 subtype B and subtype C” (Retrovirology, 2010).
Read-outs that look alike come from different tables or passages of the source.

Tests used:
Test in all cases: RNA-dependent DNA polymerase assay, [3H]-dTTP incorporation
Assay type in all cases: biochemical
[1] = molecular target: T1, C RT-2 (HIV-1 subtype C RT, isolate M01) (HIV-1 M:C_92BR025, UniProt O12158); conditions: HIV-1 PBS RNA/dPR template/primer 30 nM, dNTPs 5 μM each, 6 mM MgCl2, 60 mM KCl, pH 7.8, 37°C, 30 min, read-out: IC50 (μM)^a / C RT-2 ^e
T1 construct: gene gag-pol; p66/p51 heterodimer cut from the Pol (Gag-Pol) polyprotein; His-tagged, E. coli; with p51 RT of Gag-Pol polyprotein
Description: RNA-dependent DNA polymerase assay, [3H]-dTTP incorporation on C RT-2 (HIV-1 subtype C RT, isolate M01)

[2] = molecular target: T2, B RT-1 (HIV-1 subtype B RT, NL4-3) (Human immunodeficiency virus type 1 (NEW YORK-5 ISOLATE), UniProt P12497)
T2 construct: gene gag-pol; p66/p51 heterodimer cut from the Pol (Gag-Pol) polyprotein; plasmid pbRT6H-PROT with co-expressed HIV-1 protease; 6-His tag; E. coli M15; Ni-NTA, DEAE- and SP-Sepharose; with p51 RT of Gag-Pol polyprotein
Description: RNA-dependent DNA polymerase assay, [3H]-dTTP incorporation on B RT-1 (HIV-1 subtype B RT, NL4-3)

[3] = molecular target: T3, B RT-2 (HIV-1 subtype B RT, HXB2) (HIV-1 M:B_HXB2R, UniProt P04585)
T3 construct: gene gag-pol; p66/p51 heterodimer cut from the Pol (Gag-Pol) polyprotein; plasmid pRT6H-PROT with co-expressed HIV-1 protease; 6-His tag; E. coli M15; Ni-NTA, DEAE- and SP-Sepharose; with p51 RT of Gag-Pol polyprotein
Description: RNA-dependent DNA polymerase assay, [3H]-dTTP incorporation on B RT-2 (HIV-1 subtype B RT, HXB2)

[4] = nucleotide analogue, competitive at active site
[5] = NNRTI, non-competitive allosteric
[6] = read-out: IC50 (μM)^a / B RT-2^c
[7] = read-out: IC50 (μM)^a / B RT-1^b

## Nc1ccn([C@@H]2CS[C@H](COP(=O)(O)OP(=O)(O)OP(=O)(O)O)O2)c(=O)n1 [3TC-TP]
[1]; [4]
  IC50: 4.1 ± 0.4 µM
[2]
  IC50: 2.7 ± 0.3 µM

## O=C1Nc2ccc(Cl)cc2[C@@](C#CC2CC2)(C(F)(F)F)O1 [EFV]
[1]; [5]
  IC50: 0.18 ± 0.02 µM

## Cc1cc(C#N)cc(C)c1Oc1nc(Nc2ccc(C#N)cc2)nc(N)c1Br [ETR]
[3]; [6]
  IC50: 0.16 ± 0.02 µM
[1]; [5]
  IC50: 0.19 ± 0.03 µM
[2]; [7]
  IC50: 0.17 ± 0.03 µM

## Cc1ccnc2c1NC(=O)c1cccnc1N2C1CC1 [NVP]
[1]; [5]
  IC50: 4.3 ± 0.3 µM

## C[C@H](Cn1cnc2c(N)ncnc21)OCP(=O)(O)OP(=O)(O)OP(=O)(O)O [TFV-DP]
[3]; [6]
  IC50: 2.1 ± 0.3 µM
[1]; [4]
  IC50: 2.9 ± 0.4 µM
[2]; [7]
  IC50: 2.5 ± 0.3 µM

## Cc1cn([C@H]2C[C@H](N=[N+]=[N-])[C@@H](CO[P@](=O)(O)O[P@](=O)(O)OP(=O)(O)O)O2)c(=O)[nH]c1=O [ZDV-TP]
[3]
  IC50: 2.9 ± 0.4 µM
[1]; 150 μM sodium pyrophosphate included, nucleotide analogue, competitive at active site
  IC50: 3.8 ± 0.5 µM
